# Legend:
# wheat (winter wheat) = experiment: Test C pre-/postemergence herbicide test; format: in vivo, Triticum aestivum; settings: for Plant response rating, Wheat: Postemergence
# Method in brief: (§1)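 Pre- and postemergence greenhouse screen. Preemergence treatment went onto freshly planted seeds in loam–sand soil; postemergence treatment went onto plants 2 to 18 cm tall at the 1- to 4-leaf stage in sphagnum peat/vermiculite medium. Scoring at 13 to 15 days used a 0–100 control scale.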
# soybean = experiment: Test C pre-/postemergence herbicide test; format: in vivo, Glycine max
# Method in brief: as §1
# oat, wild = experiment: Test C pre-/postemergence herbicide test; format: in vivo, Avena fatua; settings: Postemergence
# Method in brief: as §1
# wheat = experiment: Test A pre-/postemergence herbicide test; format: in vivo, Triticum aestivum
# Method in brief: (§2)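 Visual injury ratings, 0 = no effect, 100 = complete control, taken ~10 days after treatment against untreated greenhouse controls. Preemergence: directed soil spray onto seeded loam/sand pots. Postemergence: spray onto plants at one- to two-leaf stage, 2–10 cm tall.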
# giant foxtail = experiment: Test A pre-/postemergence herbicide test; format: in vivo, Setaria faberii
# Method in brief: as §2
# waterhemp = experiment: Test C pre-/postemergence herbicide test; format: in vivo, Amaranthus rudis
# Method in brief: as §1
# ragweed = experiment: Test C pre-/postemergence herbicide test; format: in vivo, Ambrosia elatior
# Method in brief: as §1
# pigweed = experiment: Test A pre-/postemergence herbicide test; format: in vivo, Amaranthus retroflexus
# Method in brief: as §2
# ducksalad = experiment: Test B flooded paddy test; format: in vivo, Heteranthera limosa; settings: Flood, scale of 0 to 100 where 0 is no effect and 100 is complete control
# Method in brief: (§3)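 Paddy-water application at a 3 cm flood, young plants having two leaves. Water level maintained; greenhouse, 13–15 days; visual 0–100 control rating.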
# sedge, umbrella = experiment: Test B flooded paddy test; format: in vivo, Cyperus difformis; settings: Flood, scale of 0 to 100 where 0 is no effect and 100 is complete control
# Method in brief: as §3
# oilseed rape = experiment: Test C pre-/postemergence herbicide test; format: in vivo, Brassica napus
# Method in brief: as §1
# nutsedge, yellow = experiment: Test C pre-/postemergence herbicide test; format: in vivo, Cyperus esculentus
# Method in brief: as §1
# [1] = 31 g ai/ha, scale 0 to 100 (0 no effect, 100 complete control)
# [2] = 62 g ai/ha, scale 0 (no effect) to 100 (complete control)
# [3] = 125 g ai/ha, scale 0 to 100 (0 no effect, 100 complete control)
# [4] = 250 g ai/ha, scale 0 to 100 (0 no effect, 100 complete control)
# [5] = Preemergence, 62 g ai/ha, scale 0 to 100 (0 no effect, 100 complete control)
# [6] = Postemergence, 31 g ai/ha, scale 0 to 100 (0 no effect, 100 complete control)
# [7] = Postemergence, 62 g ai/ha, scale 0 (no effect) to 100 (complete control)
# [8] = Postemergence, 125 g ai/ha, scale 0 to 100 (0 no effect, 100 complete control)
# [9] = Postemergence, 250 g ai/ha, scale 0 to 100 (0 no effect, 100 complete control)
# [10] = Preemergence, 125 g ai/ha, scale 0 to 100 (0 no effect, 100 complete control)
# [11] = Postemergence, 125 g ai/ha, visual rating on 0 to 100 scale (0 no effect, 100 complete control), approx. 10 days
# [12] = Postemergence, 500 g ai/ha, 0 to 100 scale (0 no effect, 100 complete control)
# [13] = Preemergence, 125 g ai/ha, 0 to 100 scale where 0 is no effect and 100 is complete control
# [14] = Preemergence, 500 g ai/ha, visual rating on 0 to 100 scale (0 no effect, 100 complete control)
# [15] = Preemergence, 31 g ai/ha, scale 0 to 100, 0 is no effect and 100 is complete control
# [16] = 31 g ai/ha, scale 0 (no effect) to 100 (complete control)
# [17] = 62 g ai/ha, scale 0 to 100 (0 no effect, 100 complete control)
# [18] = Postemergence, 31 g ai/ha, scale 0 (no effect) to 100 (complete control)
# [19] = Postemergence, 62 g ai/ha, scale 0 to 100 (0 no effect, 100 complete control)
# [20] = Postemergence, 1000 g ai/ha, 0 to 100 scale (0 no effect, 100 complete control)
# [21] = preemergence, 1000 g ai/ha, 0 to 100 scale
compound,measurement,setting,value
CN1CC(c2ccc(C(F)(F)F)cc2)C(C(=O)Nc2cccc(F)c2F)C1=O (stereo not shown) [Compound 306],"Plant response rating, Wheat",wheat (winter wheat); [1],0
same,"Plant response rating, Wheat",wheat (winter wheat); [2],0
same,"Plant response rating, Wheat",wheat (winter wheat); [3],0
same,"Plant response rating, Wheat",wheat (winter wheat); [4],0
same,Wheat plant response rating,wheat (winter wheat); [5],50
same,"Plant response rating (scale of 0 to 100), Wheat","wheat (winter wheat); Preemergence, 250 g ai/ha",85
same,"Plant response rating, Soybean",soybean; [6],0
same,"Plant response rating, Soybean",soybean; [7],5
same,"Plant response rating, Soybean",soybean; [8],5
same,"Plant response rating, Soybean",soybean; [9],5
same,Soybean plant response rating,soybean; [5],0
same,"Plant response rating, Soybean",soybean; [10],0
same,"Plant response rating (scale of 0 to 100), Soybean","soybean; Preemergence, 250 g ai/ha",0
same,"Plant response rating, Oat, Wild","oat, wild; [1]",0
same,"Plant response rating, Oat, Wild","oat, wild; [2]",0
same,"Plant response rating, Oat, Wild","oat, wild; [3]",0
same,"Plant response rating, Oat, Wild","oat, wild; [4]",5
same,"Plant response rating, Wheat",wheat; [11],50
same,"Plant response rating, Wheat",wheat; [12],60
same,"Plant response rating, Foxtail, Giant",giant foxtail; [11],80
same,"Plant response rating, Foxtail, Giant",giant foxtail; [12],80
same,"Plant response rating, Foxtail, Giant",giant foxtail; [13],90
same,"Foxtail, Giant plant response rating",giant foxtail; [14],90
same,"Plant response rating, Waterhemp",waterhemp; [6],65
same,"Plant response rating, Waterhemp",waterhemp; [7],65
same,"Plant response rating, Waterhemp",waterhemp; [8],80
same,"Plant response rating, Waterhemp",waterhemp; [9],80
same,Waterhemp plant response rating,waterhemp; [5],85
same,"Plant response rating, Waterhemp",waterhemp; [10],85
same,"Plant response rating (scale of 0 to 100), Waterhemp","waterhemp; Preemergence, 250 g ai/ha",90
same,"Plant response rating, Ragweed",ragweed; [6],60
same,"Plant response rating, Ragweed",ragweed; [7],55
same,"Plant response rating, Ragweed",ragweed; [8],80
same,"Plant response rating, Ragweed",ragweed; [9],85
same,Ragweed plant response rating,ragweed; [5],75
same,"Plant response rating, Ragweed",ragweed; [10],75
same,"Plant response rating (scale of 0 to 100), Ragweed","ragweed; Preemergence, 250 g ai/ha",80
same,"Plant response rating, Pigweed",pigweed; [11],70
same,"Plant response rating, Pigweed",pigweed; [12],80
same,"Plant response rating, Pigweed",pigweed; [13],80
same,Pigweed plant response rating,pigweed; [14],90
same,"Plant response rating, Ducksalad",ducksalad; 500 g ai/ha,100
same,"Plant response rating, Sedge, Umbrella","sedge, umbrella; 500 g ai/ha",0
same,"Plant response rating, Oilseed Rape",oilseed rape; [6],0
same,"Plant response rating, Oilseed Rape",oilseed rape; [7],50
same,"Plant response rating, Oilseed Rape",oilseed rape; [8],40
same,"Plant response rating, Oilseed Rape",oilseed rape; [9],70
same,Oilseed Rape plant response rating,oilseed rape; [15],50
same,Oilseed Rape plant response rating,oilseed rape; [5],70
same,"Plant response rating, Oilseed Rape",oilseed rape; [10],75
same,"Plant response rating (scale of 0 to 100), Oilseed Rape","oilseed rape; Preemergence, 250 g ai/ha",75
same,"Plant response rating, Nutsedge, Yellow","nutsedge, yellow; [6]",0
same,"Plant response rating, Nutsedge, Yellow","nutsedge, yellow; [7]",0
same,"Plant response rating, Nutsedge, Yellow","nutsedge, yellow; [9]",0
same,"Nutsedge, Yellow plant response rating","nutsedge, yellow; [15]",0
same,"Nutsedge, Yellow plant response rating","nutsedge, yellow; [5]",0
same,"Plant response rating, Nutsedge, Yellow","nutsedge, yellow; [10]",0
same,"Plant response rating (scale of 0 to 100), Nutsedge, Yellow","nutsedge, yellow; Preemergence, 250 g ai/ha",10
Cc1c(F)cccc1NC(=O)C1C(=O)NCC1c1ccc(F)c(F)c1 (racemic) [Compound 106],"Plant response rating, Wheat",wheat (winter wheat); [16],0
same,"Plant response rating, Wheat",wheat (winter wheat); [17],0
same,"Plant response rating, Wheat",wheat (winter wheat); [3],0
same,"Plant response rating, Wheat",wheat (winter wheat); [4],0
same,"Plant response rating, Soybean",soybean; [18],0
same,"Plant response rating, Soybean",soybean; [19],0
same,"Plant response rating, Soybean",soybean; [8],5
same,"Plant response rating, Soybean",soybean; [9],5
same,"Plant response rating, Oat, Wild","oat, wild; [16]",0
same,"Plant response rating, Oat, Wild","oat, wild; [17]",0
same,"Plant response rating, Oat, Wild","oat, wild; [3]",0
same,"Plant response rating, Oat, Wild","oat, wild; [4]",0
same,"Plant response rating, Wheat",wheat; [20],30
same,"Plant response rating, Wheat",wheat; [21],50
same,"Plant response rating, Foxtail, Giant",giant foxtail; [20],90
same,"Plant response rating, Foxtail, Giant",giant foxtail; [21],90
same,"Plant response rating, Waterhemp",waterhemp; [18],0
same,"Plant response rating, Waterhemp",waterhemp; [19],0
same,"Plant response rating, Waterhemp",waterhemp; [8],10
same,"Plant response rating, Waterhemp",waterhemp; [9],20
same,"Plant response rating, Ragweed",ragweed; [18],25
same,"Plant response rating, Ragweed",ragweed; [19],0
same,"Plant response rating, Ragweed",ragweed; [8],0
same,"Plant response rating, Ragweed",ragweed; [9],5
same,"Plant response rating, Pigweed",pigweed; [20],0
same,"Plant response rating, Pigweed",pigweed; [21],0
same,"Plant response rating, Ducksalad",ducksalad; 1000 g ai/ha,90
same,"Plant response rating, Sedge, Umbrella","sedge, umbrella; 1000 g ai/ha",0
same,"Plant response rating, Oilseed Rape",oilseed rape; [18],0
same,"Plant response rating, Oilseed Rape",oilseed rape; [19],0
same,"Plant response rating, Oilseed Rape",oilseed rape; [8],0
same,"Plant response rating, Oilseed Rape",oilseed rape; [9],0
same,"Plant response rating, Nutsedge, Yellow","nutsedge, yellow; [18]",0
same,"Plant response rating, Nutsedge, Yellow","nutsedge, yellow; [19]",0
same,"Plant response rating, Nutsedge, Yellow","nutsedge, yellow; [8]",0
same,"Plant response rating, Nutsedge, Yellow","nutsedge, yellow; [9]",0
